Data: patent US5508437A, “Analogs of tyrosine sulfate or tyrosine phosphate containing peptides” (Hoffmann-La Roche Inc., priority 1993, dated 1996)
Like-named read-outs stand apart in the source and are kept apart here. Starred links: 1 amine or outer side, 2 acyl side, 3 side chain; linkers in the order of their positions; H or OH if unused. Positions of bridges follow the written chain, without caps; N, C: chain ends. Non-standard residues stand in square brackets, D forms with d. Residues, ends and D or L forms follow the SMILES beside them. ξ: configuration not given here. *: point of attachment. Phe(4-tetrazol-5-yl) = N[C@@H](Cc1ccc(-c2nnn[nH]2)cc1)C(=O)O; Propanoyl(3-(4-HOOCCH2-Ph)) = O=C(O)Cc1ccc(CCC(=O)*)cc1; X15 = O=C([C@@H](Cc1ccc(-c2nn[nH]n2)cc1)N[*:1])[*:2]; X13 = O=C(O)C(F)(F)c1ccc(CC(N[*:1])C(=O)[*:2])cc1; X3 = CCOC(=O)Cc1ccc(C[C@@H](N[*:1])C(=O)[*:2])cc1; X5 = CCOC(=O)Cc1ccc(C[C@H](N[*:1])C(=O)[*:2])cc1; X7 = O=C(C(Cc1ccc(-c2nn[nH]n2)cc1)N[*:1])[*:2]; X8 = O=C(C(Cc1ccc(Cc2nn[nH]n2)cc1)N[*:1])[*:2]; X12 = O=C(O)Cc1cccc(CC(N[*:1])C(=O)[*:2])c1; X1 = O=C(O)Cc1ccc(CC(N[*:1])C(=O)[*:2])cc1; X14 = O=C(O)c1cccc(CC(N[*:1])C(=O)[*:2])c1; ξPhe(4-COOH) = NC(Cc1ccc(C(=O)O)cc1)C(=O)O; X16 = O=C(CCc1ccc(-c2nnn[nH]2)cc1)*; NMeF = CN[C@@H](Cc1ccccc1)C(=O)O; Nle = CCCC[C@H](N)C(=O)O

Key:
[1] = biological target: T1, Bovine Striatum (3H-CCK-8-(SO3 H) receptor binding) (Bos taurus, UniProt P79266); assay: In vitro receptor binding assay, 3H-CCK-8-(SO3H), bovine striatum homogenate
T1 construct: tissue homogenate (striatum approximately 0.26 mg protein in 2 mL final volume); from tissue; host or cells: bovine striatum membrane homogenate
T1 sequence (P79266 1-454): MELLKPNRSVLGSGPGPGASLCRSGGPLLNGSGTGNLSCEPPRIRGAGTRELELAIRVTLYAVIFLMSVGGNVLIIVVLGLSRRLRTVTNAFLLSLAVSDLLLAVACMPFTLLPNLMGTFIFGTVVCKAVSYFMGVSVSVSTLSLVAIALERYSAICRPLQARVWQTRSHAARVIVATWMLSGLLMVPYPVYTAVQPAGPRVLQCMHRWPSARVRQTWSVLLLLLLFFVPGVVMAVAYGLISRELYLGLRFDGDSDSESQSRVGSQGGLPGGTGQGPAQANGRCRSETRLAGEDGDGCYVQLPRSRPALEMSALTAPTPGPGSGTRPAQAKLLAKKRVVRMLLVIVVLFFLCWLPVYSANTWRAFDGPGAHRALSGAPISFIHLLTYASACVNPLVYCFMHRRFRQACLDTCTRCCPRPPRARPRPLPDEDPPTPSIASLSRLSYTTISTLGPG
Protocol: (§1) Frozen bovine striatum (approx. 5 g) or fresh rat pancreas (approx. 5 g) cleaned of fat and extraneous tissue were homogenized in HEPES buffer #1 (10 mM HEPES+130 mM NaCl+5 mM MgCl2, pH 7.4) using 35 parts buffer per 1 part tissue on a wet weight/volume basis (approx. 175 mL). The tissue was homogenized 2×for approx. 15 sec. at 0° C. using a Polytron homogenizer at a setting of 6. The tissue was isolated by centrifugation at 48,000× g for 10 min at 0° C. The resulting tissue pellet was resuspended in HEPES buffer #2 (10 mM HEPES+130 mM NaCl+5 mM MgCl2 +1 mg/L phenylmethanasulfonyl fluoride (PMSF)+200 mg/L Bacitracin): 1 part striatal tissue (original wet weight) per 80 parts buffer and 1 part pancreas tissue (original wet weight) per 500 to 1000 parts buffer.
(§2) Incubation was initiated by combining various concentrations of native CCK-8 or peptides of the invention with ^3 H-CCK-8-(SO3 H) (final conc.=0.15 nM) and tissue homogenate (striatum approximately 0.26 mg protein in 2 mL final volume; pancreas approximately 0.100 mg protein in 1 mL final volume). Samples were incubated for 30 min at 25° C. and the incubation terminated by pouring the mixture onto a pre-wetted Whatman GF/B filter on a Sandbeck Vacuum Filtration Manifold. The incubation tubes were washed with 2×3 mL of ice-cold HEPES Buffer #2 and the wash filtered through the GF/B filter. The filter was air dried for 10 min and then placed in a scintillation vial with 12 mL of DuPont/NEN Aquasol scintillation cocktail. The vials were shaken overnight and then counted using a liquid scintillation spectrometer. Non-specific binding was determined in the presence of 1 micromolar native CCK-8 and subtracted from all samples to determine specific binding. The concentration of peptide necessary to inhibit 50% of total specific H-CCK-8-(SO3 H) binding (IC50 value) was determined by log-probit analysis.

[2] = biological target: T2, rat pancreas (3H-CCK-8-(SO3 H) receptor binding) (Rattus norvegicus, UniProt P30551); assay: In vitro receptor binding assay, 3H-CCK-8-(SO3H), rat pancreas homogenate
T2 construct: pancreas approximately 0.100 mg protein in 1 mL final volume; from tissue; host or cells: rat pancreas membrane homogenate
T2 sequence (P30551 1-444): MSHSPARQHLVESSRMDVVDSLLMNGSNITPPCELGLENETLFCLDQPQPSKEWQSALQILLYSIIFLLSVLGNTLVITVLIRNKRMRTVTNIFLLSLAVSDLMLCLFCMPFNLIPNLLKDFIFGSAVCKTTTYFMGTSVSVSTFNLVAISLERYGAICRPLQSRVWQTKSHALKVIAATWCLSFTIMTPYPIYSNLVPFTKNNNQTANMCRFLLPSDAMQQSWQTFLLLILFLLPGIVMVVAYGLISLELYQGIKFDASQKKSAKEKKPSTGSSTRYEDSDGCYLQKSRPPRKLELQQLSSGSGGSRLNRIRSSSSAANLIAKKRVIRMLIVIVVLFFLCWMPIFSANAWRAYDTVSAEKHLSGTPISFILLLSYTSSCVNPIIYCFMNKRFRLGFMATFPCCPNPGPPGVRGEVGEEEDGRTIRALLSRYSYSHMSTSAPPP
Protocol: as §1, §2

[3] = 3H-CCK-8-(SO3H) 0.15 nM, 30 min at 25° C., bovine striatum homogenate, read-out: Bovine Striatum IC50 (concentration to inhibit 50% of specific 3H-CCK-8-(SO3H) binding)
[4] = 3H-CCK-8-(SO3H) 0.15 nM, 30 min at 25° C., rat pancreas homogenate, read-out: Rate Pancreas IC50 (concentration to inhibit 50% of specific 3H-CCK-8-(SO3H) binding)

| Compound | IC50 [1, 3] | IC50 [2, 4] | IC50 [1] | IC50 [2] |
| --- | --- | --- | --- | --- |
| CSCC[C@H](NC(=O)[C@H](Cc1ccc(OS(=O)(=O)O)cc1)NC(=O)[C@@H](N)CC(=O)O)C(=O)NCC(=O)N[C@@H](Cc1c[nH]c2ccccc12)C(=O)N[C@@H](CCSC)C(=O)N[C@@H](CC(=O)O)C(=O)N[C@@H](Cc1ccccc1)C(N)=O [CCK-8, AspTyr(SO3 H)MetGlyTrpMetAspPheNH2, reference compound] | 1 to 3.2 nM | 1 to 4.6 nM |  |  |
| CSCC[C@H](NC(=O)C(Cc1cccc(C(=O)O)c1)NC(C)=O)C(=O)NCC(=O)N[C@@H](Cc1c[nH]c2ccccc12)C(=O)N[C@@H](CCSC)C(=O)N[C@@H](CC(=O)O)C(=O)N[C@@H](Cc1ccccc1)C(N)=O (stereo partly drawn) [Example 42, Ac-(D,L)Phe(3-COOH)-Met-Gly-Trp-Met-Asp-Phe-NH2] (Ac-[X14]MGWMDF-NH2) | 32 nM | 128 nM |  |  |
| CSCC[C@H](NC(=O)C(Cc1ccc(CC(=O)O)cc1)NC(C)=O)C(=O)NCC(=O)N[C@@H](Cc1c[nH]c2ccccc12)C(=O)N[C@@H](CCSC)C(=O)N[C@@H](CC(=O)O)C(=O)N[C@@H](Cc1ccccc1)C(N)=O (stereo partly drawn) [Example 46, Ac-(D,L)Phe(4-CH2 COOH)-Met-Gly-Trp-Met-Asp-Phe-NH2] (Ac-[X1]MGWMDF-NH2) | 47 nM | 3.6 nM |  |  |
| CCOC(=O)Cc1ccc(C[C@@H](NC(C)=O)C(=O)N[C@@H](CCSC)C(=O)NCC(=O)N[C@@H](Cc2c[nH]c3ccccc23)C(=O)N[C@@H](CCSC)C(=O)N[C@@H](CC(=O)OCC)C(=O)N[C@@H](Cc2ccccc2)C(N)=O)cc1 [Example 49, Ac-(D)Phe(4-CH2 COOC2 H5)-Met-Gly-Trp-Met-Asp(COOC2H5)-Phe-NH2] (Ac-[X3]MGWMD(OEt)F-NH2) | 10000 nM | 1000 nM |  |  |
| CCOC(=O)Cc1ccc(C[C@H](NC(C)=O)C(=O)N[C@@H](CCSC)C(=O)NCC(=O)N[C@@H](Cc2c[nH]c3ccccc23)C(=O)N[C@@H](CCSC)C(=O)N[C@@H](CC(=O)OCC)C(=O)N[C@@H](Cc2ccccc2)C(N)=O)cc1 [Example 50, Ac-Phe(4-CH2 COOC2 H5)-Met-Gly-Trp-Met-Asp-(COOC2 H5)-Phe-NH2] (Ac-[X5]MGWMD(OEt)F-NH2) | 10000 nM | 3600 nM |  |  |
| CSCC[C@H](NC(=O)C(Cc1ccc(C(F)(F)C(=O)O)cc1)NC(C)=O)C(=O)NCC(=O)N[C@@H](Cc1c[nH]c2ccccc12)C(=O)N[C@@H](CCSC)C(=O)N[C@@H](CC(=O)O)C(=O)N[C@@H](Cc1ccccc1)C(N)=O (stereo partly drawn) [Example 52, Ac-(D,L)Phe(4-CF2 COOH)-Met-Gly-Trp-Met-Asp-Phe-NH2] (Ac-[X13]MGWMDF-NH2) |  |  | 66 nM | 81 nM |
| CSCC[C@@H]1NC(=O)[C@H](Cc2c[nH]c3ccccc23)NC(=O)CNC(=O)[C@@H](NC(=O)C(Cc2ccc(CC(=O)O)cc2)NC(C)=O)CCCCNC(=O)C[C@@H](C(=O)N(C)[C@@H](Cc2ccccc2)C(N)=O)NC1=O (stereo partly drawn) [Example 56, Ac-(D,L)Phe(4-CH2 COOH)-Lys-Gly-Trp-Met-Asp-N-methyl-Phe-NH2] (Ac-[X1]KGWMD[NMeF]-NH2; lactam 2-6) | 10000 nM | 4650 nM |  |  |
| CSCC[C@H](NC(=O)C(Cc1cccc(CC(=O)O)c1)NC(C)=O)C(=O)NCC(=O)N[C@@H](Cc1c[nH]c2ccccc12)C(=O)N[C@@H](CCSC)C(=O)N[C@@H](CC(=O)O)C(=O)N[C@@H](Cc1ccccc1)C(N)=O (stereo partly drawn) [Example 58, Ac-(D,L)Phe-(3-CH2 COOH)-Met-Gly-Trp-Met-Asp-Phe-NH2] (Ac-[X12]MGWMDF-NH2) | 53 nM | 23 nM |  |  |
| CSCC[C@H](NC(=O)CCc1ccc(CC(=O)O)cc1)C(=O)NCC(=O)N[C@@H](Cc1c[nH]c2ccccc12)C(=O)N[C@@H](CCSC)C(=O)N[C@@H](CC(=O)O)C(=O)N[C@@H](Cc1ccccc1)C(N)=O [Example 59, Desamino Phe(4-CH2 -COOH)-Met-Gly-Trp-Met-Asp-Phe-NH2] ({Propanoyl(3-(4-HOOCCH2-Ph))}-MGWMDF-NH2) |  | 57 nM |  |  |
| CCCC[C@H](NC(=O)C(Cc1ccc(Cc2nn[nH]n2)cc1)NC(C)=O)C(=O)NCC(=O)N[C@@H](Cc1c[nH]c2ccccc12)C(=O)N[C@@H](CCCC)C(=O)N[C@@H](CC(=O)O)C(=O)N(C)[C@@H](Cc1ccccc1)C(N)=O (stereo partly drawn) [Example 63, Ac-(D,L)Phe(4-CH2 -tetrazole)-Nle-Gly-Trp-Nle-Asp-N-methyl-Phe-NH2] (Ac-[X8][Nle]GW[Nle]D[NMeF]-NH2) | 260 nM | 640 nM |  |  |

The next lines start with results.

| IC50 [1, 3] | IC50 [2, 4] | Compound | IC50 [1] | IC50 [2] |
| --- | --- | --- | --- | --- |
| 34 nM | 62 nM | CSCC[C@H](NC(=O)C(Cc1ccc(C(=O)O)cc1)NC(C)=O)C(=O)NCC(=O)N[C@@H](Cc1c[nH]c2ccccc12)C(=O)N[C@@H](CCSC)C(=O)N[C@@H](CC(=O)O)C(=O)N[C@@H](Cc1ccccc1)C(N)=O (stereo partly drawn) [Example 43, AC-(D,L)Phe(4-COOH)-Met-Gly-Trp-Met-Asp-Phe-NH2] (Ac-[ξPhe(4-COOH)]MGWMDF-NH2) |  |  |
| 1.6 nM | 22 nM | CSCC[C@H](NC(=O)C(Cc1ccc(-c2nn[nH]n2)cc1)NC(C)=O)C(=O)NCC(=O)N[C@@H](Cc1c[nH]c2ccccc12)C(=O)N[C@@H](CCSC)C(=O)N[C@@H](CC(=O)O)C(=O)N[C@@H](Cc1ccccc1)C(N)=O (stereo partly drawn) [Example 53, Ac-(D,L)Phe(4-tetrazole)-Met-Gly-Trp-Met-Asp-Phe-NH2] (Ac-[X7]MGWMDF-NH2) |  |  |
| 50 nM |  | CSCC[C@H](NC(=O)[C@H](Cc1c[nH]c2ccccc12)NC(=O)CNC(=O)[C@H](CCSC)NC(=O)[C@@H](Cc1ccc(-c2nn[nH]n2)cc1)NC(C)=O)C(=O)N[C@@H](CC(=O)O)C(=O)N[C@@H](Cc1ccccc1)C(N)=O [Example 54, Ac-(D)Phe(4-tetrazole)-Met-Gly-Trp-Met-Asp-Phe-NH2] (Ac-[X15]MGWMDF-NH2) |  |  |
| 0.51 nM |  | CSCC[C@H](NC(=O)[C@H](Cc1ccc(-c2nnn[nH]2)cc1)NC(C)=O)C(=O)NCC(=O)N[C@@H](Cc1c[nH]c2ccccc12)C(=O)N[C@@H](CCSC)C(=O)N[C@@H](CC(=O)O)C(=O)N[C@@H](Cc1ccccc1)C(N)=O [Example 55, AcPhe(4-tetrazole)MetGlyTrpMetAspPheNH2] (Ac-[Phe(4-tetrazol-5-yl)]MGWMDF-NH2) |  |  |
| 340 nM | 730 nM | CSCC[C@H](NC(=O)C(Cc1ccc(Cc2nn[nH]n2)cc1)NC(C)=O)C(=O)NCC(=O)N[C@@H](Cc1c[nH]c2ccccc12)C(=O)N[C@@H](CCSC)C(=O)N[C@@H](CC(=O)O)C(=O)N[C@@H](Cc1ccccc1)C(N)=O (stereo partly drawn) [Example 60, Ac-(D,L)Phe(4-CH2 tetrazole)-Met-Gly-Trp-Met-Asp-Phe-NH2] (Ac-[X8]MGWMDF-NH2) |  |  |
| 5.1 nM |  | CSCC[C@H](NC(=O)CCc1ccc(-c2nnn[nH]2)cc1)C(=O)NCC(=O)N[C@@H](Cc1c[nH]c2ccccc12)C(=O)N[C@@H](CCSC)C(=O)N[C@@H](CC(=O)O)C(=O)N[C@@H](Cc1ccccc1)C(N)=O [Example 67, Desamino-Phe(4-tetrazole)-Met-Gly-Trp-Met-Asp-Phe-NH2] (X16-MGWMDF-NH2) |  |  |
